± gives the standard deviation of the averaged measurements.

Assay [1] has as its system S1507-2. The experiment in a line: % inhibition of CellTiter-Glo viability at highest tested concentration (72 h), relative to DMSO and benzethonium chloride controls; higher = more inhibition. An outline of the steps:
(§1)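 Viability was scored by CellTiter-Glo ATP luminescence, scaled from vehicle to positive-control wells, with duplicates averaged where present. The cells, MPNST lines and primary human Schwann cells at 750–1000 per well, sat 72 h at 37 °C, 5% CO2, in 384-well plates preprinted with each compound at five concentrations in 10-fold steps. Four-parameter logistic fits were run on the data. These fits give drug sensitivity score and relative IC50 censored at the top concentration, and percent inhibition is reported at the top concentration.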

For assay [2], the system named is STS26T. The assay is described as above. An outline of the steps:
as §1

The test system of assay [3] is ST8814. The assay is described as above. The method in brief:
as §1

For assay [4], the system named is HSC1 (primary human Schwann cells). Described as above. The method in brief: as §1
Assay [5] relates to YST-1. The assay is described as above. The method in brief: as §1
Assay [6] has as its system HS-Sch-2. The assay is described as above. The method in brief:
as §1

Assay [7] deals with HS-PSS. The description is as above. The method in brief: as §1
The subject of assay [8] is HSC2 (primary human Schwann cells). The assay is described as above. An outline of the steps:
as §1

The subject of assay [9] is S462. Described as above. The method in brief:
as §1

The test system of assay [10] is S1507-2. The assay is described as follows: drug sensitivity score (DSS, CellTiter-Glo viability, 72 h) (DSS (dimensionless)); higher = more sensitive; extreme values may be limits of the assay. An outline of the steps:
as §1

The subject of assay [11] is STS26T. The assay is described as above. The method in brief: as §1
For assay [12], the system named is ST8814. The description is as above. An outline of the steps:
as §1

Assay [13] relates to HSC1 (primary human Schwann cells). The description is as above. An outline of the steps: as §1
The subject of assay [14] is YST-1. Described as above. An outline of the steps: as §1
For assay [15], the system named is HS-Sch-2. The assay is described as above. The method in brief:
as §1

Assay [16] has as its system HS-PSS. Described as above. An outline of the steps: as §1
Assay [17] relates to HSC2 (primary human Schwann cells). Described as above. An outline of the steps:
as §1

The subject of assay [18] is S462. Described as above. The method in brief: as §1
Assay [19] deals with S1507-2. The assay is described as follows: drug sensitivity score (DSS, CellTox-Green cytotoxicity, 72 h) (DSS (dimensionless)); higher = more cytotoxic; extreme values may be limits of the assay. The method in brief: (§2)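 MPNST cell lines and primary human Schwann cells were incubated 72 h at 37 °C in 384-well plates holding five 10-fold compound dilutions. CellTox-Green was added before seeding at a final 1:1000 dilution and reported fluorescence from DNA released by disrupted cells. Signals were scaled to vehicle and positive-control wells, and cultures failing plate quality control were dropped. Drug sensitivity score and relative IC50 come from four-parameter logistic fits, with IC50 censored at the top concentration.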

The subject of assay [20] is STS26T. The description is as above. The method in brief: as §2
Assay [21] relates to ST8814. Described as above. An outline of the steps:
as §2

In assay [22] the test system is HSC1 (primary human Schwann cells). Described as above. An outline of the steps: as §2
The subject of assay [23] is HS-PSS. The assay is described as above. The method in brief: as §2
For assay [24], the system named is HSC2 (primary human Schwann cells). The description is as above. An outline of the steps:
as §2

For `COc1cccc2c1C(=O)c1c(O)c3c(c(O)c1C2=O)C[C@@](O)(C(C)=O)C[C@@H]3O[C@H]1C[C@H](N)[C@H](O)[C@H](C)O1` [Daunorubicin] (max concentration tested 1000 nM), the “% inhibition” value was 96.11 ± 0.088% with S1507-2 [1]; 98.5% in the assay on STS26T [2]; 88.3% in the assay with ST8814 [3]; 99.9% in assay [4]; 101% in the assay on YST-1 [5]; 102% in the assay on HS-Sch-2 [6]. The “% inhibition” value in the assay with HS-PSS [7] is 88.2%; in assay [8], 101%; in the assay on S462 [9], 98.64 ± 0.44%. The drug sensitivity score in the assay on S1507-2 [10] came to 9.24 ± 0.51; in the assay with STS26T [11], 12.9; in the assay with ST8814 [12] it was 9.95; in assay [13] it was 10.4; with YST-1 [14] it was 17.9; with HS-Sch-2 [15], 10.6. Moreover, the drug sensitivity score in the assay on HS-PSS [16] amounted to 9.45; in assay [17] it was 12.7; with S462 [18] it was 14.9 ± 0.27; in the assay on S1507-2 [19], 0; in the assay with STS26T [20] it was 3.13; in the assay on ST8814 [21], 1.13. Besides, the drug sensitivity score in assay [22] is 2.35; in the assay on HS-PSS [23] it was 0; in [24], 3.16.

As to `Nc1ncn([C@H]2C[C@H](O)[C@@H](CO)O2)c(=O)n1` [Decitabine] (max concentration tested 10000 nM), the “% inhibition” value stood at 16.3 ± 5.8% with S1507-2 [1]; 16.2% with STS26T [2]; 18.8% with ST8814 [3]; 20.3% in assay [4]; 4.17% in the assay with YST-1 [5]; 27.8% with HS-Sch-2 [6]. Also, the “% inhibition” value in the assay with HS-PSS [7] stood at 4.62%; in assay [8], 27.7%; in the assay on S462 [9] it was 37.4 ± 5.4%. Also, the drug sensitivity score in the assay with S1507-2 [10] stood at 0.377 ± 0.53; in the assay on STS26T [11], 0.745; in the assay on ST8814 [12], 1.82; in assay [13], 3.33; in the assay on YST-1 [14], 0; in the assay with HS-Sch-2 [15] it was 2.19. Besides, the drug sensitivity score with HS-PSS [16] worked out at 0; in assay [17] it was 1.61; in the assay with S462 [18] it was 4.99 ± 0.29; with S1507-2 [19] it was 0.342 ± 0.48; with STS26T [20] it was 0; in the assay on ST8814 [21] it was 0. Besides, the drug sensitivity score (in [22]; in the assay on HS-PSS [23]; in assay [24]) was 0 throughout.

Take `C[C@@H]1C[C@H]2[C@@H]3CCC4=CC(=O)C=C[C@]4(C)[C@@]3(F)[C@@H](O)C[C@]2(C)[C@@]1(O)C(=O)CO` [Dexamethasone] (max concentration tested 10000 nM): the “% inhibition” value was 16.5 ± 13% in the assay on S1507-2 [1]; 3.98% with STS26T [2]; 22.9% with ST8814 [3]; -11.8% in assay [4]; 6.77% in the assay on YST-1 [5]; 11.7% with HS-Sch-2 [6]. Besides, the “% inhibition” value in the assay with HS-PSS [7] is -11.7%; in assay [8] it was -7.28%; in the assay with S462 [9], 9.85 ± 6.5%. Besides, the drug sensitivity score is 1.35 ± 1.9 in the assay on S1507-2 [10]; 0 with STS26T [11]; 4.78 with ST8814 [12]; 0 in assay [13]; 2.91 in the assay with YST-1 [14]; 0 with HS-Sch-2 [15]. In addition, the drug sensitivity score stood at 0 with HS-PSS [16]; 0 in assay [17]; 0.0796 ± 0.11 in the assay on S462 [18]; 0 in the assay with S1507-2 [19]; 0 in the assay with STS26T [20]; 0 with ST8814 [21]. In addition, the drug sensitivity score (in assay [22]; in the assay with HS-PSS [23]; in [24]) was 0 in each case.

Regarding `CCc1cnn2c(NCc3ccc[n+]([O-])c3)cc(N3CCCC[C@H]3CCO)nc12` [Dinaciclib] (max concentration tested 1000 nM), the “% inhibition” value is 76.6 ± 1.6% with S1507-2 [1]; 92.7% in the assay with STS26T [2]; 80.5% with ST8814 [3]; 83.5% in [4]; 99.5% in the assay with YST-1 [5]; 101% in the assay with HS-Sch-2 [6]. For the same molecule, the “% inhibition” value in the assay with HS-PSS [7] was 84.2%; in assay [8], 86.4%; in the assay with S462 [9], 90.8 ± 2.7%. Besides, the drug sensitivity score in the assay with S1507-2 [10] was found to be 15 ± 1.9; in the assay with STS26T [11] it was 21.6; with ST8814 [12] it was 15; in assay [13], 16.9; with YST-1 [14], 25.2; in the assay with HS-Sch-2 [15], 25.1. The drug sensitivity score in the assay on HS-PSS [16] was 21; in assay [17], 19.9; with S462 [18], 24.4 ± 0.71; with S1507-2 [19] it was 2.29 ± 3.1; with STS26T [20] it was 14.8; with ST8814 [21], 5.45. The drug sensitivity score in assay [22] was found to be 5.96; in the assay on HS-PSS [23], 5.02; in assay [24], 7.57.

In the case of `CC(=O)O[C@@]12CO[C@@H]1C[C@H](O)[C@@]1(C)C(=O)[C@H](O)C3=C(C)[C@@H](OC(=O)[C@H](O)[C@@H](NC(=O)OC(C)(C)C)c4ccccc4)C[C@@](O)([C@@H](OC(=O)c4ccccc4)[C@H]21)C3(C)C` [Docetaxel] (max concentration tested 1000 nM), the “% inhibition” value with S1507-2 [1] was determined as 83.195 ± 0.0062%; in the assay with STS26T [2], 99.9%; with ST8814 [3] it was 89.2%; in [4], 71.7%; in the assay with YST-1 [5], 75.9%; with HS-Sch-2 [6] it was 96.2%. In addition, the “% inhibition” value with HS-PSS [7] amounted to 52.7%; in [8], 74.4%; with S462 [9], 96.9 ± 1.2%. The drug sensitivity score was determined as 20.5 ± 0.58 in the assay with S1507-2 [10]; 35.5 in the assay with STS26T [11]; 24.8 in the assay on ST8814 [12]; 21.9 in assay [13]; 29.1 with YST-1 [14]; 30.8 in the assay on HS-Sch-2 [15]. Also, the drug sensitivity score in the assay on HS-PSS [16] stood at 15.2; in assay [17] it was 22.3; with S462 [18], 36.7 ± 1.5; with S1507-2 [19], 22 ± 1.6; in the assay with STS26T [20], 36; in the assay on ST8814 [21], 27.1. In addition, the drug sensitivity score in [22] was 17.3; in the assay with HS-PSS [23] it was 0.9; in assay [24] it was 24.4.

As to `Cc1ccc(-n2nc(C(C)(C)C)cc2NC(=O)Nc2ccc(OCCN3CCOCC3)c3ccccc23)cc1` [Doramapimod] (max concentration tested 10000 nM), the “% inhibition” value in the assay with S1507-2 [1] was 0.115 ± 1.9%; in the assay on STS26T [2] it was 1.72%; in the assay with ST8814 [3], -7.45%; in [4] it was 26.7%; in the assay with YST-1 [5] it was 80.8%; in the assay with HS-Sch-2 [6], 55.8%. For the same molecule, the “% inhibition” value in the assay with HS-PSS [7] stood at 68.6%; in assay [8], 32.9%; in the assay with S462 [9] it was 12.1 ± 6.3%. Besides, the drug sensitivity score came to 0 in the assay with S1507-2 [10]; 0 in the assay with STS26T [11]; 0 with ST8814 [12]; 1.15 in assay [13]; 10.5 with YST-1 [14]; 3.93 in the assay with HS-Sch-2 [15]. Moreover, the drug sensitivity score with HS-PSS [16] was 6.23; in assay [17] it was 2.53; with S462 [18], 0.326 ± 0.46; in the assay with S1507-2 [19], 1.81 ± 0.51; in the assay on STS26T [20] it was 0; with ST8814 [21], 0. The drug sensitivity score in assay [22] was determined as 0; with HS-PSS [23], 1.28; in assay [24], 0.

Values taken from the supplement of paper PMC5579334.
